“Also recorded” adds a separate entry of the source.
What was measured:
Format in all cases: in vivo, mouse
[1] = test system: retinoic acid receptor β (RARβ); assay: Immunolabeling of RARβ in retinal cross-sections after intravitreal injection; conditions: 5-6 days after intravitreal ATRA 100 nM versus vehicle
Description: The same procedure was carried out for detection of RARβ in mouse retinas following injection of vehicle or ATRA. Slides were incubated with a primary rabbit anti-RARβ antibody (ab53161, Abcam) and detected using an Alexa Fluor-488 conjugated goat anti-rabbit secondary antibody (Life Technologies). […] Retinas were collected 5-6 days following injection with vehicle, ATRA, or ATRA and Liarozole.
Imaging and Analysis. […] RARE double reporter virus in rats, RARb immunolabeling and TUNEL assay were imaged using a Laser Scanning Confocal Microscope (LSM 780 NLO, Zeiss), using Zen software and default configuration for RFP, GFP, AF488 and nuclear-ID detection.

RGCs in rd1 retina [2] = assay: YO-PRO-1 loading assay (dye permeability of RGCs) in rd1 retina after intravitreal injection
Description: (§1) Intravitreal Injections. Before injection, mice were anesthetized with isoflurane (2%) and their pupils were dilated with tropicamide (1%) and phenylephrine (2.5%). Proparacaine (0.5%) was used as a topical analgesic. Genteal was applied under a glass coverslip to keep the cornea lubricated. An incision was made through the sclera below the ora serrata with a 30G needle and ˜1 μl of solution was injected into the vitreous with a blunt-ended 33G Hamilton syringe. After injection, the antibiotic tobramycin (0.3%) was applied to the eye. Final drug concentrations after intravitreal injection were: all-trans retinoic acid (ATRA, 100 nM), liarozole (100 μM), diethylaminobenzaldehyde (DEAB, 20 μM), citral (50 μM), BMS-493 (500 nM), and retinaldehyde (1 μM). The above values correspond to the final concentration in the eye after injecting 1 μl of drug accounting for a 5-fold dilution. An injection of PBS including 1% DMSO was used as vehicle control.
Yo-PRO-1 Loading Assay. After dissection, retinas were cut into thirds and mounted on a windowed nitrocellulose filter paper. Retinas were treated with 200 nM Yo-PRO-1 (Life Technologies) in oxygenated ACSF for 15 minutes, followed by treatment and then treated with nuclear ID (Enzo Life Sciences) at a 1:500 dilution for 3 minutes. ACSF was perfused continuously at 3 ml/min for a period of 5 minutes to wash away excess dye. In experiments employing TNP-ATP (200 μm), the retinas was pretreated with the compound for ten minutes before beginning YO-PRO-1 treatment.
Image analysis. All image analysis was performed using ImageJ or Fiji software (55,56). Yo-PRO-1 loading assay, ROIs were manually selected using the nuclear-ID channel based upon morphological characteristics. This was performed after computationally flattening the retina by performing a maximum Z projection onto a single plane. Following this, a background subtraction was performed with a rolling radius of 50 pixels. Cells identified as vascular endothelial cells or pericytes were not included in the analysis. This was confirmed using transillumination. A threshold for YO-PRO-1 loading was established by measuring the level of autofluorescence of untreated retinas in each channel and finding a baseline value with +2SD being the threshold for a YO-PRO-1 positive cell. Nuclear-ID was used to count the total number of cells within a field of view. The percentage of cells above the threshold was then calculated for comparison. For analysis of RARE double reporter virus assay, ROIs were manually selected on the RFP channel first and then superimposed to the GFP channel. Single cell values for both RFP and GFP were filtered by using a RFP minimum threshold established in naive unlabeled retinas.
(§2) Injections. Intravitreal injections: Adult mice and rats were intravitreally injected with drugs or viruses. Before injection, animals were anesthetized with isoflurane (2%) and their pupils were dilated with tropicamide (1%) and phenylephrine (2.5%). Proparacaine (0.5%) was used as a topical analgesic. Genteal was applied under a glass coverslip to keep the cornea lubricated. An incision was made through the sclera below the ora serrata with a 30G needle. Solutions were injected into the vitreous with a blunt-ended 33G Hamilton syringe. After injection, the antibiotic tobramycin (0.3%) was applied to the eye. Final drug concentrations (after 5-fold dilution in the vitreous) were: 100 nM all-trans retinoic acid (ATRA), 100 μM liarozole (24), 20 μM diethylaminobenzaldehyde (DEAB) (28,93), 50 μM citral, 500 nM BMS 493 (85), 1 μM retinaldehyde, and vehicle comprising of 1× phosphate buffered saline (PBS) containing 1% dimethyl sulfoxide (DMSO). Intravitreal injections were performed using AAV2 serotype only. WT and rd1 mice were injected with the RAR-reporter virus or the RARDN virus, at age 1-1.5 month-old. WT and s334ter rats were injected with the RAR-reporter virus at age 3-4 month-old. Final volume of injections was 1-1.5 μL for mice and 5 μL for rats. […]

RGCs in rd1 retina [3] = assay: MEA recording of photoswitch (QAQ, BENAQ) photosensitization in rd1 retina
Description: as §1
Multi Electrode Array Recordings. For extracellular recordings, a flat-mounted retina was placed ganglion cell layer down onto a 60-electrode Multi-Electrode Array (MEA 1060-2-BC, Multi-Channel Systems). After mounting the retina, photoswitches were applied for 30 min, followed by a 15 min wash. BENAQ was applied at a concentration of 100 μM and QAQ at 300 μM. A solution containing a mixture of neurotransmitter receptor blockers isolated RGCs from synaptic inputs: (in μM) 10 AP4, 40 DNQX, 30 AP5, 10 SR-95531, 50 TPMPA, 10 strychnine, and 50 tubocurarine. Extracellular spikes were high-pass filtered at 200 Hz and digitized at 20 kHz and were counted when exceeding 4 SD from the mean background voltage signal. Typically, each electrode recorded spikes from one to three individual RGCs. Principal component analysis of the spike waveforms was used for sorting spikes generated by individual cells (Offline Sorter, Plexon). Stimulation light was generated from a mercury arc lamp. Unfiltered broad spectrum light was used for BENAQ-treated retinas. Narrow band optical filters (Chroma) were used to deliver alternating intervals of 380 nm and 500 nm for stimulation of QAQ-treated as described previously (5,12). The Photoswitch Index (5) (PI) was established for individual retinas in light/darkness for treatment with BENAQ or in 380 nm/500 nm light for treatment with QAQ (11,12).
as §2, with “month-old.” for “month-old. WT and s334ter rats were injected with the RAR-reporter virus at age 3-4 month-old. Final volume of injections was 1-1.5 μL for mice and 5 μL for rats.”

Row | SMILES | RARβ level in RGCs / ganglion cell layer [1] | Yo-Pro-1 labeling of rd1-RGCs, result in words (RGCs in rd1 retina [2]; rd1, intravitreal injection, compared to vehicle-injected) | percentage of YO-PRO-1 positive cells (fraction of RGC nuclei labeled) (RGCs in rd1 retina [2]; rd1 mice, intravitreal injection, measured 3-7 days after, BMS-493 500 nM, DEAB 20 uM, citral 50 uM, mean±SEM) | QAQ photosensitization of rd1 retina, in words (RGCs in rd1 retina [3]; rd1 mice injected intravitreally with BMS-493) | Photoswitch Index (PI) with BENAQ (RGCs in rd1 retina [3]; rd1 retina treated with BMS-493 (intravitreal, 3-7 days), BENAQ, white light/darkness, mean±SEM) | Photoswitch Index (PI) with QAQ (RGCs in rd1 retina [3]; rd1 retina treated with BMS-493 (intravitreal, 3-7 days), QAQ 300 μM, 380/500 nm, mean±SEM)
1 | CC1=C(/C=C/C(C)=C/C=C/C(C)=C/C(=O)O)C(C)(C)CCC1 [ATRA, all-trans retinoic acid] | significant increase in RARβ; also recorded: upregulation of the β-subunit of RAR |  |  |  |  | 
2 | CC1(C)CC=C(C#Cc2ccccc2)c2cc(/C=C/c3ccc(C(=O)O)cc3)ccc21 [BMS-493] |  | reduced Yo-Pro-1 labeling in rd1 to WT levels | 6.13±1.43% | prevented QAQ photosensitization | 0.35±0.05 | 0.15±0.06

From US20240398738A1, “MANIPULATION OF THE RETINOIC ACID SIGNALING PATHWAY” (THE REGENTS OF THE UNIVERSITY OF CALIFORNIA, priority 2017, published 2024)
